The source of these data is patent US20180319810A1, “SUBSTITUTED BRIDGED UREA ANALOGS AS SIRTUIN MODULATORS” (GlaxoSmithKline Intellectual Property (No.2) Limited, priority 2014, published 2018).

This test concerns the target T1, SIRT1 (Homo sapiens, UniProt Q96EB6).
T1 sequence (Q96EB6 1-747): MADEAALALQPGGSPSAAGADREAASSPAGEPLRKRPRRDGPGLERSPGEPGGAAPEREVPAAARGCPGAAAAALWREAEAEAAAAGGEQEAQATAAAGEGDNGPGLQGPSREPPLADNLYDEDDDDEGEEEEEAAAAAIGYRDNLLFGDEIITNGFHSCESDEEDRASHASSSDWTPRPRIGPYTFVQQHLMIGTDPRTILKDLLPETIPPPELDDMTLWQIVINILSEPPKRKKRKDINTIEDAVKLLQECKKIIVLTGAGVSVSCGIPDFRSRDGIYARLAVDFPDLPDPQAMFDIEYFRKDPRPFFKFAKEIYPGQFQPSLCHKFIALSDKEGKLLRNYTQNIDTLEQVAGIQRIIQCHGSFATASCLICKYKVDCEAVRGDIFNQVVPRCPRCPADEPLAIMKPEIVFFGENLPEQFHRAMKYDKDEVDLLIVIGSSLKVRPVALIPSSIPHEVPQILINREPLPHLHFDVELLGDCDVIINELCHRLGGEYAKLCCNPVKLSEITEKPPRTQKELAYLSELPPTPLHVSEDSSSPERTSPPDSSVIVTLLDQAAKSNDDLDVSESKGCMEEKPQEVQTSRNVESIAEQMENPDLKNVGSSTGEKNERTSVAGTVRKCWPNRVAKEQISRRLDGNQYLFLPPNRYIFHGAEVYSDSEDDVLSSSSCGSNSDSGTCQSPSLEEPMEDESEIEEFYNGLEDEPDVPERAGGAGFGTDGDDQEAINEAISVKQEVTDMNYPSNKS
In words: Trp mass spectrometry assay of SIRT1 activation. Format: biochemical. The note with it: Trp peptide Ac-R-H-K-K(Ac)-W-NH2 0.5 μM, 120 μM βNAD+, 10 nM SIRT1, 25 min, 25° C. The source says:
Mass spectrometry based assays were used to identify modulators of SIRT1 activity. […] The peptide was labeled with the fluorophore 5TMR (excitation 540 nm/emission 580 nm) at the C-terminus. The sequence of the peptide substrate was based on p53 with several modifications. In addition, the methionine residue naturally present in the sequence was replaced with the norleucine because the methionine may be susceptible to oxidation during synthesis and purification.
The Trp mass spectrometry assay was conducted as follows. […] The SIRT1 protein was obtained by cloning the SirT1 gene into a T7-promoter containing vector, which was then expressed in BL21(DE3) bacterial cells and purified as described in further detail below. Test compound was added at varying concentrations to this reaction mixture and the resulting reactions were monitored. After the 25 minute incubation with SIRT1, 10 μL of 10% formic acid was added to stop the reaction. The resulting reactions were sealed and frozen for later mass spec analysis. The relative SIRT1 activity was then determined by measuring the amount of O-acetyl-ADP-ribose (OAADPR) formed (or, alternatively, the amount of deacetylated Trp peptide generated) by the NAD-dependent sirtuin deacetylation reaction in the presence of varying concentrations of the test compound versus control reactions lacking the test compound.
The degree to which the test agent activated deacetylation by SIRT1 was expressed as EC1.5 (i.e., the concentration of compound required to increase SIRT1 activity by 50% over the control lacking test compound), and Percent Maximum Activation (i.e., the maximum activity relative to control (100%) obtained for the test compound).
This time point was the same as that used for test compounds and, within the linear range, the endpoint represents a change in velocity.
For the above assay, SIRT1 protein was expressed and purified as follows. The SirT1 gene was cloned into a T7-promoter containing vector and transformed into BL21(DE3). The protein was expressed by induction with 1 mM IPTG as an N-terminal His-tag fusion protein at 18° C. overnight and harvested at 30,000×g. Cells were lysed with lysozyme in lysis buffer (50 mM Tris-HCl, 2 mM Tris[2-carboxyethyl]phosphine (TCEP), 10 μM ZnCl2, 200 mM NaCl) and further treated with sonication for 10 min for complete lysis. The protein was purified over a Ni-NTA column (Amersham) and fractions containing pure protein were pooled, concentrated and run over a sizing column (Sephadex S200 26/60 global). The peak containing soluble protein was collected and run on an Ion-exchange column (MonoQ). Gradient elution (200 mM-500 mM NaCl) yielded pure protein. This protein was concentrated and dialyzed against dialysis buffer (20 mM Tris-HCl, 2 mM TCEP) overnight. The protein was aliquoted and frozen at −80° C. until further use.
“NT” means not tested; “ND” means not determinable.
For the compound `Cc1nc(-c2cccc(C(F)(F)F)c2)nc2c1N1CC[C@@H](C1)N2C(=O)Nc1cnc(OC[C@H](O)CO)nc1` [Example 55, (8S)—N-(2-((R)-2,3-dihydroxypropoxy)pyrimidin-5-yl)-4-methyl-2-(3-(trifluoromethyl)phenyl)-7,8-dihydro-5,8-methanopyrimido[4,5-b][1,4]diazepine-9(6H)-carboxamide], the “TRP Activity (EC1.5, concentration of compound required to increase SIRT1 activity by 50% over control)” value is listed as “B (EC1.5 1-25 μM)” and the “TRP MAX RESP (percent maximum fold activation relative to control)” value is reported as “A (Fold activation ≥150%)”.
Take `O=C(Nc1ccnc(OC[C@@H](O)CO)c1)N1c2nc(-c3cccc(C(F)(F)F)c3)ncc2N2CCC[C@H]1C2` [Example 85, (9S)—N-(2-((S)-2,3-dihydroxypropoxy)pyridin-4-yl)-2-(3-(trifluoromethyl)phenyl)-8,9-dihydro-6H-5,9-methanopyrimido[4,5-b][1,4]diazocine-10(7H)-carboxamide]: the “TRP Activity (EC1.5, concentration of compound required to increase SIRT1 activity by 50% over control)” value is “A (EC1.5<1 μM)” and the “TRP MAX RESP (percent maximum fold activation relative to control)” value was “A (Fold activation ≥150%)”.
For `O=C(Nc1cncc(OC[C@H](O)CO)c1)N1c2nc(-c3cccc(C(F)(F)F)c3)ncc2N2CCC[C@H]1C2` [Example 81, (9S)—N-(5-((R)-2,3-dihydroxypropoxy)pyridin-3-yl)-2-(3-(trifluoromethyl)phenyl)-8,9-dihydro-6H-5,9-methanopyrimido[4,5-b][1,4]diazocine-10(7H)-carboxamide], in that order: “A (EC1.5<1 μM)” and “A (Fold activation ≥150%)”.
The corresponding values for `O=C(Nc1cc(OC[C@H](O)CO)ncn1)N1c2nc(-c3cccc(C(F)(F)F)c3)ncc2N2CC[C@H]1C2` [Example 16, (8S)—N-(6-((R)-2,3-dihydroxypropoxy)pyrimidin-4-yl)-2-(3-(trifluoromethyl)phenyl)-7,8-dihydro-5,8-methanopyrimido[4,5-b][1,4]diazepine-9(6H)-carboxamide] are “B (EC1.5 1-25 μM)” and “A (Fold activation ≥150%)”.
For `C[C@@H](NC(=O)c1ncc2c(n1)N(C(=O)Nc1cc(OC[C@@H](O)CO)ncn1)[C@H]1CCCN2C1)C(F)(F)F` [Example 75, (9S)—N10-(6-((S)-2,3-dihydroxypropoxy)pyrimidin-4-yl)-N2-((R)-1,1,1-trifluoropropan-2-yl)-8,9-dihydro-6H-5,9-methanopyrimido[4,5-b][1,4]diazocine-2,10(7H)-dicarboxamide], in that order: “B (EC1.5 1-25 μM)” and “A (Fold activation ≥150%)”.
For `O=C(Nc1cc(OC[C@@H](O)CO)ncn1)N1c2nc(-c3cccc(C(F)(F)F)c3)ncc2N2CCC[C@H]1C2` [Example 96, (9S)—N-(6-((S)-2,3-dihydroxypropoxy)pyrimidin-4-yl)-2-(3-(trifluoromethyl)phenyl)-8,9-dihydro-6H-5,9-methanopyrimido[4,5-b][1,4]diazocine-10(7H)-carboxamide], the “TRP Activity (EC1.5, concentration of compound required to increase SIRT1 activity by 50% over control)” value was “A (EC1.5<1 μM)” and the “TRP MAX RESP (percent maximum fold activation relative to control)” value was “A (Fold activation ≥150%)”.
The corresponding values for `Cc1nc(C(=O)N[C@H](C)C(F)(F)F)nc2c1N1CCC[C@@H](C1)N2C(=O)Nc1cc(OC[C@H](O)CO)ccn1` [Example 67, (9S)—N10-(4-((R)-2,3-dihydroxypropoxy)pyridin-2-yl)-4-methyl-N2-((R)-1,1,1-trifluoropropan-2-yl)-8,9-dihydro-6H-5,9-methanopyrimido[4,5-b][1,4]diazocine-2,10(7H)-dicarboxamide] are “A (EC1.5<1 μM)” and “A (Fold activation ≥150%)”.
For `O=C(Nc1cnnc(OC[C@H](O)CO)c1)N1c2nc(-c3cccc(C(F)(F)F)c3)ncc2N2CCC[C@H]1C2` [Example 110, (9S)—N-(6-((R)-2,3-dihydroxypropoxy)pyridazin-4-yl)-2-(3-(trifluoromethyl)phenyl)-8,9-dihydro-6H-5,9-methanopyrimido[4,5-b][1,4]diazocine-10(7H)-carboxamide], in that order: “A (EC1.5<1 μM)” and “A (Fold activation ≥150%)”.
The corresponding values for `Cc1ncc(-c2ccnc(NC(=O)N3c4nc(C(=O)N[C@H](C)C(F)(F)F)ncc4N4CC[C@H]3C4)c2)o1` [Example 115, (8S)—N9-(4-(2-methyloxazol-5-yl)pyridin-2-yl)-N2-((R)-1,1,1-trifluoropropan-2-yl)-7,8-dihydro-5,8-methanopyrimido[4,5-b][1,4]diazepine-2,9(6H)-dicarboxamide] are “B (EC1.5 1-25 μM)” and “A (Fold activation ≥150%)”.
For the compound `O=C(Nc1nccc(OC[C@H](O)CO)n1)N1c2nc(-c3cccc(C(F)(F)F)c3)ncc2N2CCC[C@H]1C2` [Example 100, (9S)—N-(4-((R)-2,3-dihydroxypropoxy)pyrimidin-2-yl)-2-(3-(trifluoromethyl)phenyl)-8,9-dihydro-6H-5,9-methanopyrimido[4,5-b][1,4]diazocine-10(7H)-carboxamide], the “TRP Activity (EC1.5, concentration of compound required to increase SIRT1 activity by 50% over control)” value is “A (EC1.5<1 μM)” and the “TRP MAX RESP (percent maximum fold activation relative to control)” value is given as “A (Fold activation ≥150%)”.
The corresponding values for `O=C(Nc1nccc(OC[C@@H](O)CO)n1)N1c2nc(-c3cccc(C(F)(F)F)c3)ncc2N2CC[C@H]1C2` [Example 51, (8S)—N-(4-((S)-2,3-dihydroxypropoxy)pyrimidin-2-yl)-2-(3-(trifluoromethyl)phenyl)-7,8-dihydro-5,8-methanopyrimido[4,5-b][1,4]diazepine-9(6H)-carboxamide] are “B (EC1.5 1-25 μM)” and “A (Fold activation ≥150%)”.
For `Cc1nc(-c2cccc(C(F)(F)F)c2)nc2c1N1CCC[C@@H](C1)N2C(=O)Nc1ccc(OC[C@H](O)CO)cn1` [Example 113, (9S)—N-(5-((R)-2,3-dihydroxypropoxy)pyridin-2-yl)-4-methyl-2-(3-(trifluoromethyl)phenyl)-8,9-dihydro-6H-5,9-methanopyrimido[4,5-b][1,4]diazocine-10(7H)-carboxamide], the “TRP Activity (EC1.5, concentration of compound required to increase SIRT1 activity by 50% over control)” value was “A (EC1.5<1 μM)” and the “TRP MAX RESP (percent maximum fold activation relative to control)” value was “A (Fold activation ≥150%)”.
For `CN(C)c1ccc(-c2ncc3c(n2)N(C(=O)Nc2ccccn2)[C@H]2CCN3C2)cn1` [Example 9, (8S)-2-(6-(dimethylamino)pyridin-3-yl)-N-(pyridin-2-yl)-7,8-dihydro-5,8-methanopyrimido[4,5-b][1,4]diazepine-9(6H)-carboxamide], the “TRP Activity (EC1.5, concentration of compound required to increase SIRT1 activity by 50% over control)” value is listed as “B (EC1.5 1-25 μM)”.
